pEC50: −log10 of the molar value.

These results are taken from patent US11008323B2, “Substituted tricyclic 1,4-benzodiazepinone derivatives as allosteric modulators of group II metabotropic glutamate receptors” (Domain Therapeutics, priority 2015, dated 2021).

In this assay the target is T1, human mGluR3 (hmGluR3) (Homo sapiens, UniProt Q14832).
T1 construct: expressed in transfected cells; host or cells: HEK-293 cells, transient co-transfection by electroporation
T1 sequence (Q14832 23-879): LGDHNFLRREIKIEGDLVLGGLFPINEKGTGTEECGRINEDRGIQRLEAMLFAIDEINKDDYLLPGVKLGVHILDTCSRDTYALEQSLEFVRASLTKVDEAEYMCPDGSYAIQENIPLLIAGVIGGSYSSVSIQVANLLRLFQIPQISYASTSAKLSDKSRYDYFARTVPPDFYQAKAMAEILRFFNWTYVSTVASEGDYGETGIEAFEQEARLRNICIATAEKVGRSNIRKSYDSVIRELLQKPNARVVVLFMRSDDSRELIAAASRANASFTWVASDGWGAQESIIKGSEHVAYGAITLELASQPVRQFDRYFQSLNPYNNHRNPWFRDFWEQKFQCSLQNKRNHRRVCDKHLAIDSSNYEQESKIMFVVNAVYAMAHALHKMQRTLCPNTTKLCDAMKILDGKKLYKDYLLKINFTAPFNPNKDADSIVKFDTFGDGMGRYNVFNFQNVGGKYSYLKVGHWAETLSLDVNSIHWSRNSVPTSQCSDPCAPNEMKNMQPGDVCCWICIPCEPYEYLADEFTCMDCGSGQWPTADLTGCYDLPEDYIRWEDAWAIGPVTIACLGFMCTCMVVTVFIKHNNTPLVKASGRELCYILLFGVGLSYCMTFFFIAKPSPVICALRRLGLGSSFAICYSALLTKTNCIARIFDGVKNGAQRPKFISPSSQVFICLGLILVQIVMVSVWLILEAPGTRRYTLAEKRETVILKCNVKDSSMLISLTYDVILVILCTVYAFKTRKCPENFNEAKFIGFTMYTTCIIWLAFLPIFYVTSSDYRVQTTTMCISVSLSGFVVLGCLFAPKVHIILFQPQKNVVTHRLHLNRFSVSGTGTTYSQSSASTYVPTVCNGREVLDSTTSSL
Kind of assay: Human mGluR3 positive allosteric modulator evaluation using Ca++ functional assay. Conditions: hmGluR3 transiently over-expressed in HEK-293 cells; stimulated by EC50 glutamate concentration; intracellular Ca2+ (Fluo4AM, FLIPR Tetra). It is filed as cell-based. The protocol:
Compounds of the present invention were tested successively for their agonist and positive allosteric modulator activities on human mGluR3 (hmGluR3) transiently over-expressed in HEK-293 cells. Compounds exert agonist activity if they are able to activate hmGluR3 by themselves, i.e., in absence of the endogenous agonist glutamate; and they exert positive allosteric modulator activity if they increase the action of the endogenous agonist glutamate.
HEK-293 cells were maintained in Modified Eagle's Medium supplemented with 10% Foetal Calf Serum, 1% Penicillin/Streptomycin and 1% non-essential amino acids at 37° C./5% CO2.
Cells were co-transfected by electroporation with four DNA plasmids encoding hmGluR3, a chimeric G protein allowing redirection of the activation signal toward intracellular calcium pathway, and two glutamate transporters so as to decrease extracellular glutamate levels and avoid receptor desensitization (Brabet I et al., Neuropharmacology 37(8), 1043-51, 1998). After transfection, cells were seeded in 75 cm^2 culture flasks, and cultured for 24 h.
Receptor activity was detected by changes in intracellular calcium measured using the fluorescent Ca^2+ sensitive dye, Fluo4AM (Molecular Probes).
The day of the assay, medium was aspirated and replaced during 3 hrs by freshly prepared buffer B (HBSS 1×, Hepes 20 mM, MgSO4-7H2O 1 mM, Na2CO3 3.3 mM, CaCl2-2H2O 1.3 mM, 0.5% BSA, Probenecid 2.5 mM). Then, cells were loaded at 37° C./5% CO2 for 1.5 hrs with buffer B containing 1 μM Fluo4AM, 0.1 mg/mL Pluronic Acid, 7 μg/mL Glutamate Pyruvate Transaminase and 2 mM sodium pyruvate. Afterwards cells were washed with buffer B. Cells were then detached from the 75 cm^2 culture flasks with Accutase® (5 min incubation at 37° C.), centrifuged (5 min at 840 rpm), resuspended in buffer B and finally seeded at a density of 30,000 cells/well in black-walled clear-bottom 384-well plates. Addition of compounds on cells and intracellular Ca^2+ measurements (excitation 485 nm, emission 525 nm) were performed by the fluorescence microplate reader FLIPR Tetra (Molecular Devices).
Agonist and positive allosteric modulator activities of compounds were consecutively evaluated on the same cells plate. Agonist activity was first tested during 10 min with the addition of compound alone on the cells. Then, the cells were stimulated by an EC50 glutamate concentration and fluorescence was recorded for additional 3 min. EC50 glutamate concentration is the concentration giving 50% of the maximal glutamate response. Agonist and/or positive allosteric modulator activity(ies) were evaluated in comparison to basal signal or signal evoked by EC50 glutamate concentration alone, respectively.
For potency determination, a dose-response test was performed using 20 concentrations of each compound of the invention. Dose-response curves were fitted using the sigmoïdal dose-response (variable slope) analysis in XLfit Scientific Curve Fitting for Excel (IDBS). EC50 of agonist/EC50 of positive allosteric modulator activity(ies) were calculated. Dose-response experiments were all performed in duplicate, two times independently.
Regarding `CCc1ncccc1-c1ccc2c(c1)-n1cc(C)cc1C(=O)N(C)C21CC1` [Example 199], the pEC50 is more than 7.00. The value for `Cc1ncccc1-c1ccc2c(c1)-n1cc(-c3cccnc3)cc1C(=O)N(C)C21CC1` [Example 143] was more than 7.00; that for `Cc1ncccc1-c1ccc2c(c1)-n1cccc1C(=O)N(C)C2C` (centres unmarked) [Example 218, 5,6-Dimethyl-9-(2-methyl-pyridin-3-yl)-5,6-dihydro-benzo[f]pyrrolo[1,2-a][1,4]diazepin-4-one] was 6.00 to 7.00.

For `CCc1ncccc1-c1ccc2c(c1)-n1cc(-c3ccccc3)cc1C(=O)N(C)C21CC1` [Example 99, 5-Methyl-2-phenyl-9-(2-ethyl-pyridin-3-yl)-spiro[benzo[f]pyrrolo[1,2-a][1,4]diazepine-6,1′-cyclopropan]-4(5H)-one], the pEC50 is 6.00 to 7.00. Next, `CN1C(=O)c2cccn2-c2cc(Br)cc(F)c2C12CC2` [Example 7, 9-Bromo-7-fluoro-5-methyl-spiro[benzo[f]pyrrolo[1,2-a][1,4]diazepine-6,1′-cyclopropan]-4(5H)-one]: less than 6.00.

The compound `CN1C(=O)c2cc(-c3ccccc3)cn2-c2cc(-c3ccccn3)ccc2C12CC2` [Example 111, 5-Methyl-2-phenyl-9-(pyridin-2-yl)-spiro[benzo[f]pyrrolo[1,2-a][1,4]diazepine-6,1′-cyclopropan]-4(5H)-one] had a pEC50 of more than 7.00. As to `Cc1ccc(-c2ccc3c(c2)-n2cccc2C(=O)N(C)C32CC2)cn1` [Example 25, 5-Methyl-9-(6-methylpyridin-3-yl)-spiro[benzo[f]pyrrolo[1,2-a][1,4]diazepine-6,1′-cyclopropan]-4(5H)-one], the pEC50 was more than 7.00. Consider `Cc1ccc(-c2ccc3c(c2)-n2cc(-c4ccccc4)cc2C(=O)N(C)C32CC2)c(C)n1` [Example 107, 5-Methyl-2-phenyl-9-(2,6-dimethyl-pyridin-3-yl)-spiro[benzo[f]pyrrolo[1,2-a][1,4]diazepine-6,1′-cyclopropan]-4(5H)-one], for which the negative-log EC50 (pEC50) was more than 7.00. Compound `Cc1cc(-c2ccc3c(c2)-n2nc(-c4ccccc4)cc2C(=O)N(C)C32CC2)cc(C)n1` [Example 121, 9-(2,6-Dimethyl-pyridin-4-yl)-5-methyl-2-phenyl-spiro[benzo[f]pyrazolo[1,5-a][1,4]diazepine-6,1′-cyclopropan]-4(5H)-one] had a pEC50 of 6.00 to 7.00.

For the compound `Cc1ncccc1-c1ccc2c(c1)-n1cccc1C(=O)N(C)C2(C)C` [Example 223, 5,6,6-Trimethyl-9-(2-methyl-pyridin-3-yl)-5,6-dihydro-benzo[f]pyrrolo[1,2-a][1,4]diazepin-4-one], the pEC50 was 6.00 to 7.00.

On to `Cc1cc2n(c1)-c1cc(-c3cccnc3C)ccc1C1(CC1)N(C)C2=O` [Example 144], for which the pEC50 is more than 7.00. Next, `Cc1ncccc1-c1ccc2c(c1F)-n1cccc1C(=O)N(C)C21CC1` [Example 75, 10-Fluoro-5-methyl-9-(2-methyl-pyridin-3-yl)-spiro[benzo[f]pyrrolo[1,2-a][1,4]diazepine-6,1′-cyclopropan]-4(5H)-one]: 6.00 to 7.00. Regarding `Cc1ccc(-c2ccc3c(c2)-n2nc(-c4ccccc4)cc2C(=O)N(C)C32CC2)c(C)n1` [Example 126, 9-(2,6-Dimethyl-pyridin-3-yl)-5-methyl-2-phenyl-spiro[benzo[f]pyrazolo[1,5-a][1,4]diazepine-6,1′-cyclopropan]-4(5H)-one], the pEC50 is more than 7.00. Regarding `Cc1nccnc1-c1ccc2c(c1)-n1cccc1C(=O)N(C)C21CC1` [Example 58, 5-Methyl-9-(3-methyl-pyrazin-2-yl)-5,6-spiro[benzo[f]pyrrolo[1,2-a][1,4]diazepine-6,1′-cyclopropan]-4(5H)-one], the pEC50 was less than 6.00. In turn, `Cc1ncccc1-c1cc2c(cc1F)C1(CC1)N(C)C(=O)c1cccn1-2` [Example 77, 8-Fluoro-5-methyl-9-(2-methyl-pyridin-3-yl)-spiro[benzo[f]pyrrolo[1,2-a][1,4]diazepine-6,1′-cyclopropan]-4(5H)-one] had a pEC50 of 6.00 to 7.00.

With `CN1C(=O)c2cc(-c3nnco3)cn2-c2cc(-c3ccc(Cl)nc3)ccc2C12CC2` [Example 191], the negative logarithm of the EC50 (pEC50) was more than 7.00.

With `Cc1ncccc1-c1ccc2c(c1)-n1nccc1C(=O)N(C)C2` [Example 217, 5-Methyl-9-(2-methylpyridin-3-yl)-5,6-dihydro-4H-benzo[f]pyrazolo[1,5-a][1,4]diazepin-4-one], the negative-log EC50 (pEC50) was less than 6.00. Next, `CN1C(=O)c2cc(-c3nnco3)cn2-c2cc(Br)ccc2C12CC2` [Example 189]: less than 6.00; `Cc1ncccc1-c1ccc2c(c1)-n1cc(-c3ccccc3)nc1C(=O)N(C)C2` [Example 166, 5-Methyl-9-(2-methylpyridin-3-yl)-2-phenyl-5,6-dihydro-4H-benzo[f]imidazo[1,2-a][1,4]diazepin-4-one]: 6.00 to 7.00. `Cc1ncccc1-c1ccc2c(c1)-n1cc(-c3ccccc3F)cc1C(=O)N(C)C21CC1` [Example 151] showed a pEC50 of more than 7.00. The value for `Cc1ncccc1-c1cc(F)c2c(c1)-n1cccc1C(=O)N(C)C21CC1` [Example 73, 7-Fluoro-5-methyl-9-(2-methyl-pyridin-3-yl)-spiro[benzo[f]pyrrolo[1,2-a][1,4]diazepine-6,1′-cyclopropan]-4(5H)-one] was more than 7.00.

`CN1C(=O)c2cc(-c3ccccc3)nn2-c2cc(Br)ccc2C12CC2` [Example 11, 9-Bromo-5-methyl-2-phenyl-spiro[benzo[f]pyrazolo[1,5-a][1,4]diazepine-6,1′-cyclopropan]-4(5H)-one] had a pEC50 of less than 6.00. Next, `CN1C(=O)c2cccn2-c2ccc(Br)cc2C12CC2` [Example 13, 8-Bromo-5-methyl-spiro[benzo[f]pyrrolo[1,2-a][1,4]diazepine-6,1′-cyclopropan]-4(5H)-one]: less than 6.00; `CN1C(=O)c2cc(-c3ccccc3)cn2-c2cc(-c3cccnn3)ccc2C12CC2` [Example 109, 5-Methyl-2-phenyl-9-pyridazin-3-yl-spiro[benzo[f]pyrrolo[1,2-a][1,4]diazepine-6,1′-cyclopropan]-4(5H)-one]: 6.00 to 7.00; `Cc1ncccc1-c1ccc2c(c1)-n1cc(-c3nccs3)cc1C(=O)N(C)C21CC1` [Example 157]: more than 7.00. Next, `CN1C(=O)c2cccn2-c2cc(-c3ccncc3)ccc2C12CC2` [Example 22, 5-Methyl-9-(pyridin-4-yl)-spiro[benzo[f]pyrrolo[1,2-a][1,4]diazepine-6,1′-cyclopropan]-4(5H)-one]: 6.00 to 7.00. `CN1C(=O)c2cc(-c3ccccc3)nn2-c2cc(-c3ccc(N)nc3)ccc2C12CC2` [Example 127, 9-(6-Amino-pyridin-3-yl)-5-methyl-2-phenyl-spiro[benzo[f]pyrazolo[1,5-a][1,4]diazepine-6,1′-cyclopropan]-4(5H)-one] showed a pEC50 of more than 7.00. The value for `Cc1ncccc1-c1ccc2c(c1)-n1cncc1C(=O)N(C)C2` [Example 215, 5-Methyl-9-(2-methylpyridin-3-yl)-5,6-dihydro-4H-benzo[f]imidazo[1,5-a][1,4]diazepin-4-one] was less than 6.00; that for `Cc1cc(-c2ccc3c(c2)-n2nc(-c4ccccc4)cc2C(=O)N(C)C32CC2)ccn1` [Example 122, 9-(2-Methyl-pyridin-4-yl)-5-methyl-2-phenyl-spiro[benzo[f]pyrazolo[1,5-a][1,4]diazepine-6,1′-cyclopropan]-4(5H)-one] was 6.00 to 7.00. The value for `CN1C(=O)c2cccn2-c2cc(-c3ccc4nccn4c3)ccc2C12CC2` [Example 41, 5-Methyl-9-(imidazo[1,2-a]pyridin-6-yl)-spiro[benzo[f]pyrrolo[1,2-a][1,4]diazepine-6,1′-cyclopropan]-4(5H)-one] was more than 7.00; that for `Cc1ncccc1-c1ccc2c(c1)-n1cc(-c3cnco3)cc1C(=O)N(C)C21CC1` [Example 182] was more than 7.00. The value for `CN1C(=O)c2cccn2-c2cc(Br)c(F)cc2C12CC2` [Example 9, 9-Bromo-8-fluoro-5-methyl-spiro[benzo[f]pyrrolo[1,2-a][1,4]diazepine-6,1′-cyclopropan]-4(5H)-one] was less than 6.00.
